Experiments:
Estrogen receptor beta [1] = target: T1, Estrogen receptor beta (Homo sapiens, UniProt Q92731)
Description: Binding affinity to human ERbeta

Estrogen receptor [2] = target: T2, Estrogen receptor (Homo sapiens, UniProt P03372)
T2 sequence (P03372 whole entry): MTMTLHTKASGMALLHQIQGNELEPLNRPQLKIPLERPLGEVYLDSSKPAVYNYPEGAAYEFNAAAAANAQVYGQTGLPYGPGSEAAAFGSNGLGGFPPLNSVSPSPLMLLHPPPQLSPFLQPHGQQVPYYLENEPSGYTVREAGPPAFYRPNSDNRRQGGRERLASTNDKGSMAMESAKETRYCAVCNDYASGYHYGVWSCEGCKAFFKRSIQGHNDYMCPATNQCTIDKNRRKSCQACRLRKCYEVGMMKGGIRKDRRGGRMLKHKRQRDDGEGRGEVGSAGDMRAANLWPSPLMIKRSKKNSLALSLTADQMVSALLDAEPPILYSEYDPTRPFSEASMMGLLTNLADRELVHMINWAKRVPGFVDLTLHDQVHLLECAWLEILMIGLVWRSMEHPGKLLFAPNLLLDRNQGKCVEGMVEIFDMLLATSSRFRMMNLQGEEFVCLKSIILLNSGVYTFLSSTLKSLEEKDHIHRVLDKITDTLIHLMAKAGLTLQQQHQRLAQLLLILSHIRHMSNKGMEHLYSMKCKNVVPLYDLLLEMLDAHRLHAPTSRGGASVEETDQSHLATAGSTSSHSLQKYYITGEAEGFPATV
Description: Binding affinity to human ERalpha

Estrogen receptor beta [3] = target: T1, Estrogen receptor beta; format: functional, cell-based, HEK293
Description: Effect on transactivation of ALP gene expression in HEK293 cells transfected with hERbeta

Estrogen receptor [4] = target: T2, Estrogen receptor; format: functional, cell-based, HEK293
Description: Effect on transactivation of ALP gene expression in HEK293 cells transfected with hERalpha

Androgen receptor = target: T3, Androgen receptor (Homo sapiens, UniProt P10275)
T3 sequence (P10275 whole entry): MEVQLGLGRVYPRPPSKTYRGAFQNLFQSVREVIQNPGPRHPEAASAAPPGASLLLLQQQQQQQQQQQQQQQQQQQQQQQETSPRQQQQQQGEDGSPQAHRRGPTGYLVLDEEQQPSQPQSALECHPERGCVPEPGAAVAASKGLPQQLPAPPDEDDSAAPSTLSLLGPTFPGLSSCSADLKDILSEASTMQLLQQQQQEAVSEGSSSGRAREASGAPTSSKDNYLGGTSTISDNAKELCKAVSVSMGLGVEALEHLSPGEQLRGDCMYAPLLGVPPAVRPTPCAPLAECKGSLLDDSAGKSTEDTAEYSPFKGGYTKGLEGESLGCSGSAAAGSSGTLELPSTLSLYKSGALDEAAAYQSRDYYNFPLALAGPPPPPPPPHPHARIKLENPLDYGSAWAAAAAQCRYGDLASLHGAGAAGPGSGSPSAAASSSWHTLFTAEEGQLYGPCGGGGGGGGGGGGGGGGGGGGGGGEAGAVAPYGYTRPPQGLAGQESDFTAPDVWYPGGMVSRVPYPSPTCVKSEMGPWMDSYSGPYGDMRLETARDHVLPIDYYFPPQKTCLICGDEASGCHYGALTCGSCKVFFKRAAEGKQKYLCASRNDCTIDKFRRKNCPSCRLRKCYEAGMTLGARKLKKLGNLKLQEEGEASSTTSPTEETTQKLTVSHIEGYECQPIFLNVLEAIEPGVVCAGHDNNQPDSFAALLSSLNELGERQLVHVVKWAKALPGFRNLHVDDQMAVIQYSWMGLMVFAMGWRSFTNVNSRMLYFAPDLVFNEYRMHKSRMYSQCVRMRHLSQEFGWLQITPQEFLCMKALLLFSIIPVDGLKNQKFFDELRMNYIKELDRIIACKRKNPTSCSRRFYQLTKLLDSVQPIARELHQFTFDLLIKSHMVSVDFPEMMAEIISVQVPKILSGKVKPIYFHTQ
Description: Inhibitory activity against AR

T1 sequence (Q92731 whole entry): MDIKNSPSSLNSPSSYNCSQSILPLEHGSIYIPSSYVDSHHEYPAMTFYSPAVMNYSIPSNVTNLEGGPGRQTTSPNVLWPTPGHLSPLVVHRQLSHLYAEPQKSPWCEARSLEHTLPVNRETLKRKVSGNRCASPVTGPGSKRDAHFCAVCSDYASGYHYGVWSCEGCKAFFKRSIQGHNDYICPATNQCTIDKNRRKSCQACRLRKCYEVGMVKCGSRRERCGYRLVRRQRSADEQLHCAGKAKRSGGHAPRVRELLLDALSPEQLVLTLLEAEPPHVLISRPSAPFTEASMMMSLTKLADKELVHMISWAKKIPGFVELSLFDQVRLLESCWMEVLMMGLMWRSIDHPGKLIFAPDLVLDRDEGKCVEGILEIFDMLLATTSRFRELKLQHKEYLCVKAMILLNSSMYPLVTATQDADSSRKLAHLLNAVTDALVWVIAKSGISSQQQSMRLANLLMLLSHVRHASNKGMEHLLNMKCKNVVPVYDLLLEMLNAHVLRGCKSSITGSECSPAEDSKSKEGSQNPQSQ

SMILES	IC50 (Estrogen receptor beta [1]) [nM]	IC50 (Estrogen receptor [2]) [nM]	EC50 (Estrogen receptor beta [3]) [nM]	EC50 (Estrogen receptor [4]) [nM]	IC50 (Androgen receptor) [nM]
C/C=C\[C@]12CC[C@H](O)CC1=CCC1C2CC[C@@]2(C)C1CC[C@@H]2O (stereo partly specified)	16	1960	21	344	
C=C[C@]12CC[C@H](O)CC1=CCC1C2CC[C@@]2(C)C1CC[C@@H]2O (stereo partly specified)	11	2240	4.1	982	33
C#CC1(O)CCC2C3CC=C4C[C@@H](O)CC[C@]4(C=C)C3CC[C@@]21C (single isomer, unassigned)	14	147	24	10	287
C[C@]12CCC3C(CC=C4C[C@@H](O)CC[C@@]43/C=C/Br)C1CC[C@@H]2O (stereo partly specified)	210	3980	67	> 1000	120
C[C@]12CCC3C(CC=C4C[C@@H](O)CC[C@@]43CC=O)C1CC[C@@H]2O (stereo partly specified)	1620	> 1000	> 1000	> 1000	> 5000
C[C@]12CC[C@H]3[C@@H](CCC4=CC(=O)CC[C@@]43C)[C@@H]1CC[C@@H]2O [TESTOSTERONE]	> 10000				
C#CC[C@]12CC[C@H](O)CC1=CCC1C2CC[C@@]2(C)C1CC[C@@H]2O (stereo partly specified)	286	4640	153	984	1720
CC/C=C\[C@]12CC[C@H](O)CC1=CCC1C2CC[C@@]2(C)C1CC[C@@H]2O (stereo partly specified)	361	3040	252	719	3770
CC[C@]12CC[C@H](O)CC1=CCC1C2CC[C@@]2(C)C1CC[C@@H]2O (stereo partly specified)	16	2330			33
CO/C=C/[C@]12CC[C@H](O)CC1=CCC1C2CC[C@@]2(C)C1CC[C@@H]2O (stereo partly specified)	1300	> 10000	827	583	4620
CC#C[C@]12CC[C@H](O)CC1=CCC1C2CC[C@@]2(C)C1CC[C@@H]2O (stereo partly specified)	381	> 8420	171	1000	3730
C=C[C@]12CC[C@H](O)CC1=CCC1C2CC[C@@]2(C)C1CC[C@]2(C)O (stereo partly specified)	25	1050	31	494	169
C=CC[C@]12CC[C@H](O)CC1=CCC1C2CC[C@@]2(C)C1CC[C@@H]2O (stereo partly specified)	128	1740	148	1000	1770
C=C[C@]12CCC(=O)C=C1CCC1C2CC[C@@]2(C)C1CC[C@@H]2O (stereo partly specified)	782	> 10000	379	> 1000	7.9
C[C@]12CCC3C(CC=C4C[C@@H](O)CC[C@@]43C=O)C1CC[C@@H]2O (stereo partly specified)	230	> 10000	78	844	> 5000
C/C=C/[C@]12CC[C@H](O)CC1=CCC1C2CC[C@@]2(C)C1CC[C@@H]2O (stereo partly specified)	96	1160	39	47	843
C[C@]12CCC3C(CC=C4C[C@@H](O)CC[C@@]43/C=C/Cl)C1CC[C@@H]2O (stereo partly specified)	122	5600	68	603	1440
CCC[C@]12CC[C@H](O)CC1=CCC1C2CC[C@@]2(C)C1CC[C@@H]2O (stereo partly specified)	132	5160			1770
CO/C=C\[C@]12CC[C@H](O)CC1=CCC1C2CC[C@@]2(C)C1CC[C@@H]2O (stereo partly specified)	303	3350	188	3240	1400
C[C@]12CCC3C(CC=C4C[C@@H](O)CC[C@@]43CO)C1CC[C@@H]2O (stereo partly specified)	1750	6320	> 641	> 1000	> 5000
C[C@]12CCC3C(CC=C4C[C@@H](O)CC[C@@]43/C=C\F)C1CC[C@@H]2O (stereo partly specified)	25	4280	3.8	622	11
C[C@]12CCC3C(CC=C4C[C@@H](O)CC[C@@]43/C=C\Cl)C1CC[C@@H]2O (stereo partly specified)	83	6690	91	> 1000	172
C[C@]12CCC3C(CC=C4C[C@@H](O)CC[C@@]43/C=C/F)C1CC[C@@H]2O (stereo partly specified)	22	4160	8.7	324	85
C#CC12CC[C@H](O)CC1=CCC1C2CC[C@@]2(C)C1CC[C@@H]2O (single isomer, unassigned)	17	425	8	160	1760
C[C@]12CCC3C(CC=C4C[C@@H](O)CC[C@@]43/C=C\Br)C1CC[C@@H]2O (stereo partly specified)	212	> 10000	96	> 1000	20
